This assay deals with T1, human OX2 receptor (Homo sapiens, UniProt O43614).
T1 construct: expressed in transfected cells
T1 sequence (O43614 1-444): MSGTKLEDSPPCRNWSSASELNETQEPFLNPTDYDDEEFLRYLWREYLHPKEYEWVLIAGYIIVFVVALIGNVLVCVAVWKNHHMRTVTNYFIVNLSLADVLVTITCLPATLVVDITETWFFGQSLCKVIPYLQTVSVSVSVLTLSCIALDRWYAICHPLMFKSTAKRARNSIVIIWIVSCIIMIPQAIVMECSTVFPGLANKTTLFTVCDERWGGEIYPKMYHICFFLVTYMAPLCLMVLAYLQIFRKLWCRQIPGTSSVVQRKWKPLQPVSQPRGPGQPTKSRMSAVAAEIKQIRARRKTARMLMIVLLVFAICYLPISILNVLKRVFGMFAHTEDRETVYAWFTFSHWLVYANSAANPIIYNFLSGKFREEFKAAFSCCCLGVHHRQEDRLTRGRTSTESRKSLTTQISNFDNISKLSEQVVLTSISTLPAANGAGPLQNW
Description: Measurement of orexin type 2 receptor agonist activity (calcium fluorescence, Fluo-4, FDSS). The format is cell-based. To be noted: 3 uM test compound; CHO cells expressing human OX2 receptor; DMSO = 0%, 10 nM orexin A (human) = 100%. In short, it runs like this:
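CHO-K1 cells stably expressing human OX2 receptor (residues 1-444) were loaded with Fluo-4 AM plus probenecid. Calcium fluorescence after compound addition was recorded for 1 min 40 s. Activity (%) was scaled between DMSO (0%) and 10 nM orexin A final (100%).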

On to `CCOc1cc(-c2c(F)cc(F)cc2F)c2c(N3CC[C@H]4N(C[C@@H](NS(=O)(=O)CC)C4(F)F)C3=O)noc2c1` [Example 307, N-{(4aR,6R)-2-[6-ethoxy-4-(2,4,6-trifluorophenyl)-1,2-benzoxazol-3-yl]-5,5-difluoro-1-oxooctahydropyrrolo[1,2-c]pyrimidin-6-yl}ethanesulfonamide], for which the “OX2R agonist activity (3 uM, %)” value came out at 101%.

Take `COc1cc(-c2c(F)cc(F)cc2F)c2c(N3CC[C@H]4N(C[C@@H](NS(=O)(=O)C5CC5)C4(F)F)C3=O)noc2n1` [Example 308, N-{(4aR,6R)-5,5-difluoro-2-[6-methoxy-4-(2,4,6-trifluorophenyl)[1,2]oxazolo[5,4-b]pyridin-3-yl]-1-oxooctahydropyrrolo[1,2-c]pyrimidin-6-yl}cyclopropanesulfonamide]: the “OX2R agonist activity (3 uM, %)” value is listed as 100%.

`CCS(=O)(=O)N[C@@H]1Cn2c(cn(-c3noc4nc(OC)cc(-c5c(F)cc(F)cc5F)c34)c2=O)C1(F)F` [Example 309, N-{(6R)-7,7-difluoro-2-[6-methoxy-4-(2,4,6-trifluorophenyl)[1,2]oxazolo[5,4-b]pyridin-3-yl]-3-oxo-2,5,6,7-tetrahydro-3H-pyrrolo[1,2-c]imidazol-6-yl}ethanesulfonamide]: the “OX2R agonist activity (3 uM, %)” value was 107%.

For `CNS(=O)(=O)N[C@@H]1CN2C(=O)N(c3noc4cc(F)cc(-c5c(F)cccc5F)c34)C[C@@H]2C1(F)F` [Example 310, N-{(6R,7aR)-2-[4-(2,6-difluorophenyl)-6-fluoro-1,2-benzoxazol-3-yl]-7,7-difluoro-3-oxohexahydro-1H-pyrrolo[1,2-c]imidazol-6-yl}-N′-methylsulfuric diamide], the “OX2R agonist activity (3 uM, %)” value is given as 100%.

For `CCS(=O)(=O)N[C@@H]1CN2C(=O)N(c3noc4cc(F)c(F)c(-c5c(F)cccc5F)c34)CC[C@@H]2C1(F)F` [Example 311, N-{(4aR,6R)-2-[4-(2,6-difluorophenyl)-5,6-difluoro-1,2-benzoxazol-3-yl]-5,5-difluoro-1-oxooctahydropyrrolo[1,2-c]pyrimidin-6-yl}ethanesulfonamide], the “OX2R agonist activity (3 uM, %)” value is 99%.

Take `O=C1N(c2noc3cc(F)c(F)c(-c4c(F)cccc4F)c23)CC[C@H]2N1C[C@@H](NS(=O)(=O)C1CC1)C2(F)F` [Example 312, N-{(4aR,6R)-2-[4-(2,6-difluorophenyl)-5,6-difluoro-1,2-benzoxazol-3-yl]-5,5-difluoro-1-oxooctahydropyrrolo[1,2-c]pyrimidin-6-yl}cyclopropanesulfonamide]: the “OX2R agonist activity (3 uM, %)” value is listed as 100%.

As to `O=C1N(c2noc3cc(F)c(F)c(-c4c(F)cccc4F)c23)CC[C@H]2N1C[C@@H](NS(=O)(=O)CF)C2(F)F` [Example 313, N-{(4aR,6R)-2-[4-(2,6-difluorophenyl)-5,6-difluoro-1,2-benzoxazol-3-yl]-5,5-difluoro-1-oxooctahydropyrrolo[1,2-c]pyrimidin-6-yl}-1-fluoromethanesulfonamide], the “OX2R agonist activity (3 uM, %)” value amounted to 99%.

For `CS(=O)(=O)N[C@@H]1CN2C(=O)N(c3noc4cc(F)cc(-c5c(F)cccc5F)c34)CC[C@@H]2C1(F)F` [Example 314, N-{(4aR,6R)-2-[4-(2,6-difluorophenyl)-6-fluoro-1,2-benzoxazol-3-yl]-5,5-difluoro-1-oxooctahydropyrrolo[1,2-c]pyrimidin-6-yl}methanesulfonamide], the “OX2R agonist activity (3 uM, %)” value worked out at 113%.

Turning to `CCS(=O)(=O)N[C@@H]1CN2C(=O)N(c3noc4nc(OC)cc(-c5c(F)cc(F)cc5F)c34)CC[C@@H]2C1(F)F` [Example 315, N-{(4aR,6R)-5,5-difluoro-2-[6-methoxy-4-(2,4,6-trifluorophenyl)[1,2]oxazolo[5,4-b]pyridin-3-yl]-1-oxooctahydropyrrolo[1,2-c]pyrimidin-6-yl}ethanesulfonamide], the “OX2R agonist activity (3 uM, %)” value amounted to 105%.

As for `O=C1N(c2noc3cc(OC(F)F)cc(-c4c(F)cc(F)cc4F)c23)CC[C@H]2N1C[C@@H](NS(=O)(=O)C1CC1)C2(F)F` [Example 316, N-{(4aR,6R)-2-[6-(difluoromethoxy)-4-(2,4,6-trifluorophenyl)-1,2-benzoxazol-3-yl]-5,5-difluoro-1-oxooctahydropyrrolo[1,2-c]pyrimidin-6-yl}cyclopropanesulfonamide], the “OX2R agonist activity (3 uM, %)” value is recorded as 105%.

`CS(=O)(=O)N[C@H]1C[C@H]2CCN(c3noc4cccc(-c5c(F)cccc5F)c34)C(=O)N2C1` [Example 317, N-{(4aR,6S)-2-[4-(2,6-difluorophenyl)-1,2-benzoxazol-3-yl]-1-oxooctahydropyrrolo[1,2-c]pyrimidin-6-yl}methanesulfonamide]: the “OX2R agonist activity (3 uM, %)” value is on record as 110%.

Regarding `O=C1N(c2noc3cc(F)cc(-c4ncc(F)cc4F)c23)CC[C@H]2N1C[C@@H](NS(=O)(=O)C1CC1)C2(F)F` [Example 318, N-{(4aR,6R)-2-[4-(3,5-difluoropyridin-2-yl)-6-fluoro-1,2-benzoxazol-3-yl]-5,5-difluoro-1-oxooctahydropyrrolo[1,2-c]pyrimidin-6-yl}cyclopropanesulfonamide], the “OX2R agonist activity (3 uM, %)” value is given as 105%.

With `O=C1N(c2noc3cccc(-c4ncc(F)cc4F)c23)CC[C@H]2N1C[C@@H](NS(=O)(=O)C1CC1)C2(F)F` [Example 319, N-{(4aR,6R)-2-[4-(3,5-difluoropyridin-2-yl)-1,2-benzoxazol-3-yl]-5,5-difluoro-1-oxooctahydropyrrolo[1,2-c]pyrimidin-6-yl}cyclopropanesulfonamide], the “OX2R agonist activity (3 uM, %)” value was determined as 107%.

As to `CS(=O)(=O)N[C@@H]1CN2C(=O)N(c3noc4cccc(-c5ncc(F)cc5F)c34)CC[C@@H]2C1(F)F` [Example 320, N-{(4aR,6R)-2-[4-(3,5-difluoropyridin-2-yl)-1,2-benzoxazol-3-yl]-5,5-difluoro-1-oxooctahydropyrrolo[1,2-c]pyrimidin-6-yl}methanesulfonamide], the “OX2R agonist activity (3 uM, %)” value was 104%.

`CCS(=O)(=O)N[C@@H]1CN2C(=O)N(c3noc4cccc(-c5ncc(F)cc5F)c34)CC[C@@H]2C1(F)F` [Example 321, N-{(4aR,6R)-2-[4-(3,5-difluoropyridin-2-yl)-1,2-benzoxazol-3-yl]-5,5-difluoro-1-oxooctahydropyrrolo[1,2-c]pyrimidin-6-yl}ethanesulfonamide]: the “OX2R agonist activity (3 uM, %)” value was 108%.

`CCS(=O)(=O)N[C@@H]1CN2C(=O)N(c3noc4cccc(-c5ccccc5OC)c34)CC[C@@H]2C1(F)F` [Example 322, N-{(4aR,6R)-5,5-difluoro-2-[4-(2-methoxyphenyl)-1,2-benzoxazol-3-yl]-1-oxooctahydropyrrolo[1,2-c]pyrimidin-6-yl}ethanesulfonamide]: the “OX2R agonist activity (3 uM, %)” value was 99%.

On to `CCS(=O)(=O)N[C@@H]1CN2C(=O)N(c3noc4cccc(-c5ccc(F)cc5C)c34)CC[C@@H]2C1(F)F` [Example 323, N-{(4aR,6R)-5,5-difluoro-2-[4-(4-fluoro-2-methylphenyl)-1,2-benzoxazol-3-yl]-1-oxooctahydropyrrolo[1,2-c]pyrimidin-6-yl}ethanesulfonamide], for which the “OX2R agonist activity (3 uM, %)” value stood at 97%.

On to `CCS(=O)(=O)N[C@@H]1CN2C(=O)N(c3noc4cccc(-c5ccco5)c34)CC[C@@H]2C1(F)F` [Example 324, N-{(4aR,6R)-5,5-difluoro-2-[4-(furan-2-yl)-1,2-benzoxazol-3-yl]-1-oxooctahydropyrrolo[1,2-c]pyrimidin-6-yl}ethanesulfonamide], for which the “OX2R agonist activity (3 uM, %)” value is recorded as 97%.

(Values after patent US11987586B1 (TAKEDA PHARMACEUTICAL COMPANY LIMITED, priority 2022, dated 2024).)
